Patent publication US20260356819A1, “OXOISOINDOLINYL-SUBSTITUTED […] DERIVATIVE AND USE THEREOF” (GLUETACS THERAPEUTICS (SHANGHAI) CO., LTD., priority 2023, published 2026)

Tests used:
CK1α = biological target: T1, CK1α (Homo sapiens, UniProt P48729+Q96SW2); test: Western blot degradation of CK1α in hPBMCs (24 h); assay type: cell-based; details: compounds at 50 nM and 500 nM
T1 construct: The supernatant was aspirated as the extracted total cell protein; endogenous in cells; host or cells: human peripheral blood mononuclear cells (hPBMCs)
In short: (§1)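 PBMC Western blot, 24 h treatment; test levels 50 nM and 500 nM. Band density ÷ internal control, normalised → % remaining; degradation (%) = 1 − remaining.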

IKZF1 = biological target: T2, IKZF1 (Homo sapiens, UniProt Q13422+Q96SW2); test: Western blot degradation of IKZF1 in hPBMCs (24 h); assay type: cell-based; details: compounds at 50 nM and 500 nM
T2 construct: The supernatant was aspirated as the extracted total cell protein; endogenous in cells; host or cells: human peripheral blood mononuclear cells (hPBMCs)
In short: as §1

IKZF3 = biological target: T3, IKZF3 (Homo sapiens, UniProt Q96SW2+Q9UKT9); test: Western blot degradation of IKZF3 in hPBMCs (24 h); assay type: cell-based; details: compounds at 50 nM and 500 nM
T3 construct: The supernatant was aspirated as the extracted total cell protein; endogenous in cells; host or cells: human peripheral blood mononuclear cells (hPBMCs)
In short: as §1

GSPT1 = biological target: T4, GSPT1 (Homo sapiens, UniProt P15170+Q96SW2); test: Western blot degradation of GSPT1 in hPBMCs (24 h); assay type: cell-based; details: compounds at 50 nM and 500 nM
T4 construct: The supernatant was aspirated as the extracted total cell protein; endogenous in cells; host or cells: human peripheral blood mononuclear cells (hPBMCs)
In short: as §1

MM.1S cells = test: Inhibition of proliferation of multiple myeloma cells MM.1S (cell viability assay, 96 h); assay type: cell-based, human; details: read-out: inhibitory activity (IC50) against tumor cells proliferation, MM.1S
Procedure: The tumor cells used herein were cultured in a cell culture medium listed in table 2 at 37 °C in an incubator with 5% CO2. Prior to experimentation, all cell lines used were correctly identified by STR profiling, and tested negative for Mycoplasma contamination using a Mycoplasma detection kit through routine screenings.
The IC50 values of the compounds of the present disclosure (including the compounds in Table 1, and Examples 1-498) were determined using the CellTiter-Meiluncell Luminescent Cell Viability Assay Kit from Dalian Meilun Biotech Co., Ltd. The detailed procedure is as follows: Tumor cells were seeded in 96-well cell culture plates at the densities specified in Table 3. On the following day, the test compounds of the present disclosure were subjected to serial dilution. […] Subsequently, 0.5 μL of the test compound dilution was transferred into the 96-well plate containing the cells, with each well containing 100 μL of cell culture medium. […] Into the 96-well plate, the diluted test compounds and corresponding detection reagents were added, resulting in final test compound concentrations of 500 nM and 10 nM, respectively. The experimental procedure is described below using the diluted 2 μM test compound as an example.
0.5 μL of the aforementioned diluted compound of the present disclosure (including the compounds in Table 1, and Examples 1-498) was added to the seeded cells in 100 μL of medium, yielding a final test compound concentration of 10 nM. After the cells were treated with the compounds of the present disclosure for a specified period, the cell viability assay reagent was added to the culture medium according to the kit's instructions to determine cell viability. […] All controls were treated using the same procedure as the compounds of the present disclosure. The growth inhibition curves for the compounds of the present disclosure were plotted using Prism GraphPad software, and the IC50 values were calculated therefrom.

WEE1 = biological target: T5, WEE1 (Homo sapiens, UniProt P30291+Q96SW2); test: Western blot degradation of WEE1 in hPBMCs (24 h); assay type: cell-based; details: compounds at 50 nM and 500 nM
T5 construct: The supernatant was aspirated as the extracted total cell protein; endogenous in cells; host or cells: human peripheral blood mononuclear cells (hPBMCs)
In short: as §1

IKZF2 = biological target: T6, IKZF2 (Homo sapiens, UniProt Q96SW2+Q9UKS7); test: Western blot degradation of IKZF2 in hPBMCs (24 h); assay type: cell-based; details: compounds at 50 nM and 500 nM
T6 construct: The supernatant was aspirated as the extracted total cell protein; endogenous in cells; host or cells: human peripheral blood mononuclear cells (hPBMCs)
In short: as §1

T5 sequence (P30291 whole entry): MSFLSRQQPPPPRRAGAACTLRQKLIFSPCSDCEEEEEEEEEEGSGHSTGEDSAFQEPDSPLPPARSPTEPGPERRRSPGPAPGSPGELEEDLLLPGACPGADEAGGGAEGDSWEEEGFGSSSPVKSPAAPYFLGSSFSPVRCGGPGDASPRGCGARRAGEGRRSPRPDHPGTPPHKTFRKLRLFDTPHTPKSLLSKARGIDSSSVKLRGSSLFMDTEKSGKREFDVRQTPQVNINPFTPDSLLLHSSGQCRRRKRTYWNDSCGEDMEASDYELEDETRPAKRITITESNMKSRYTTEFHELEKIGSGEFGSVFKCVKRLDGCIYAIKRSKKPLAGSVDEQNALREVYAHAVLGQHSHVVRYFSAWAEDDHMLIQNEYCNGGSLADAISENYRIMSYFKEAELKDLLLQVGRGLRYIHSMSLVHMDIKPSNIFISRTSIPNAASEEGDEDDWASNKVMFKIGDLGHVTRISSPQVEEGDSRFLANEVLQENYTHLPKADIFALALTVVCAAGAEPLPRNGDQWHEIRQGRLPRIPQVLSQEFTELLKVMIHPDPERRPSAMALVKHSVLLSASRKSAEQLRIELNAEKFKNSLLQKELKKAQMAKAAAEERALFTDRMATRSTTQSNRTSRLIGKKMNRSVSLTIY
T5 sequence (Q96SW2 whole entry): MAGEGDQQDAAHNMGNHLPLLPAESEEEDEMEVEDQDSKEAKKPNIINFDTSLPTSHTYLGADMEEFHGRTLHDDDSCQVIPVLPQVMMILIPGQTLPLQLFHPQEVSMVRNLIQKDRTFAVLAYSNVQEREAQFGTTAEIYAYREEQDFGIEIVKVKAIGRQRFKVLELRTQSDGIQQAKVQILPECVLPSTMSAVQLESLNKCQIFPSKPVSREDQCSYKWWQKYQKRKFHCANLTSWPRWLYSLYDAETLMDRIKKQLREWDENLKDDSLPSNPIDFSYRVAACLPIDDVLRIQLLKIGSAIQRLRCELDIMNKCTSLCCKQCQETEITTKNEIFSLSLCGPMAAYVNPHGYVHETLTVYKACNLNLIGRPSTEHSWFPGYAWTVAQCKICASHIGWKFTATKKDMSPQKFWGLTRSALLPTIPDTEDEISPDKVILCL
T5 sequence (Q16531 whole entry partner): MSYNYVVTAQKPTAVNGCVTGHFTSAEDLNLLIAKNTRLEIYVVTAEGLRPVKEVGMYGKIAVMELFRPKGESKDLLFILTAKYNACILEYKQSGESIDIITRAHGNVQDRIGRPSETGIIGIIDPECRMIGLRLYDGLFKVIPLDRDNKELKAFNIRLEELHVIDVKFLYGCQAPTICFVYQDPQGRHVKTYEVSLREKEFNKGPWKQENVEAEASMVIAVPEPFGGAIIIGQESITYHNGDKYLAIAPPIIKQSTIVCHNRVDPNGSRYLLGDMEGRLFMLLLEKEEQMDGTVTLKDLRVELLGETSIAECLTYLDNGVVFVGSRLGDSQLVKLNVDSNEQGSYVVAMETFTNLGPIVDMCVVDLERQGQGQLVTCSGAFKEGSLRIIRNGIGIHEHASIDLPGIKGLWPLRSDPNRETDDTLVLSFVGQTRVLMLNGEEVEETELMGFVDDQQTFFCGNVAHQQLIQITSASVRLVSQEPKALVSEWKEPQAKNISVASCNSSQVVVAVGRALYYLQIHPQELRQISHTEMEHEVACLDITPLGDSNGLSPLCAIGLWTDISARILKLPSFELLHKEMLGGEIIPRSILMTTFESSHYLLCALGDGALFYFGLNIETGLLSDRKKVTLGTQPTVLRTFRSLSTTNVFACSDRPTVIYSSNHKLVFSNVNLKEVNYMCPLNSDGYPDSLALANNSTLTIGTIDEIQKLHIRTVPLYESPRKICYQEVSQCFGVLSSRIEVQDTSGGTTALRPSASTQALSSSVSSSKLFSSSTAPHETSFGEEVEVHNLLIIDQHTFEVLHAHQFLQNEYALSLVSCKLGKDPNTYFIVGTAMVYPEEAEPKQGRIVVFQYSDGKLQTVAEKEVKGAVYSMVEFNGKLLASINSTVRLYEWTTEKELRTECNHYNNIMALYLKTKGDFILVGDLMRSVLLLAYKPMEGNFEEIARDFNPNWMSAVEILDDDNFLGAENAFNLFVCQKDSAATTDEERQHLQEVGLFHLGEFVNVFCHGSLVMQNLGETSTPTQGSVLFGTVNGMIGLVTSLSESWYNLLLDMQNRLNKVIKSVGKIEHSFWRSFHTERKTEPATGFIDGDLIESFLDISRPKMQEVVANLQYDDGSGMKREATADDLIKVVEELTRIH
T2 sequence (Q13422 whole entry): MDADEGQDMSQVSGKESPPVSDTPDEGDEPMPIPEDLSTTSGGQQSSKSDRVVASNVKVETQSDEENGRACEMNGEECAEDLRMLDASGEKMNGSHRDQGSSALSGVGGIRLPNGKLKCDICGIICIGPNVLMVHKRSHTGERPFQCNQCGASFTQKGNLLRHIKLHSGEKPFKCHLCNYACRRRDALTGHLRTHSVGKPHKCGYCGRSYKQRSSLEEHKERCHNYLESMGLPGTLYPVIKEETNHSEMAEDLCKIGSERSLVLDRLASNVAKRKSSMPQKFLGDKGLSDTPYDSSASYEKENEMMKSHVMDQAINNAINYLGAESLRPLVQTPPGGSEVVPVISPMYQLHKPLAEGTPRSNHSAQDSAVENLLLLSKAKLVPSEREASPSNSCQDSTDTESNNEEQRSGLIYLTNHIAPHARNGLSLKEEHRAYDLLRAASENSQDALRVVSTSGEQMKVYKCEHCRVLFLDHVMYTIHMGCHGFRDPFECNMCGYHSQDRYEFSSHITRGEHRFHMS
T2 sequence (Q96SW2 whole entry): as the sequence (Q96SW2 whole entry) above
T2 sequence (Q16531 whole entry partner): as the sequence (Q16531 whole entry partner) above
T1 sequence (P48729 whole entry): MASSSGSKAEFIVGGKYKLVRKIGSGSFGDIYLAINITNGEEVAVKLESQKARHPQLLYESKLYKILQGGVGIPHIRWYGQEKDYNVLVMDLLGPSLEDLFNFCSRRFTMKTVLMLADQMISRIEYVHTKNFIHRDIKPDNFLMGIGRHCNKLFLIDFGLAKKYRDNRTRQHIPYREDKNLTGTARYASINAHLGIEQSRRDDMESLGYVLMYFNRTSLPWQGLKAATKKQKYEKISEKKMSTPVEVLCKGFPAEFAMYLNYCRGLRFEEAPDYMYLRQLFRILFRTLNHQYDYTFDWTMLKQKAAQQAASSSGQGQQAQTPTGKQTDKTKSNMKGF
T1 sequence (Q96SW2 whole entry): as the sequence (Q96SW2 whole entry) above
T1 sequence (Q16531 whole entry partner): as the sequence (Q16531 whole entry partner) above
T3 sequence (Q9UKT9 whole entry): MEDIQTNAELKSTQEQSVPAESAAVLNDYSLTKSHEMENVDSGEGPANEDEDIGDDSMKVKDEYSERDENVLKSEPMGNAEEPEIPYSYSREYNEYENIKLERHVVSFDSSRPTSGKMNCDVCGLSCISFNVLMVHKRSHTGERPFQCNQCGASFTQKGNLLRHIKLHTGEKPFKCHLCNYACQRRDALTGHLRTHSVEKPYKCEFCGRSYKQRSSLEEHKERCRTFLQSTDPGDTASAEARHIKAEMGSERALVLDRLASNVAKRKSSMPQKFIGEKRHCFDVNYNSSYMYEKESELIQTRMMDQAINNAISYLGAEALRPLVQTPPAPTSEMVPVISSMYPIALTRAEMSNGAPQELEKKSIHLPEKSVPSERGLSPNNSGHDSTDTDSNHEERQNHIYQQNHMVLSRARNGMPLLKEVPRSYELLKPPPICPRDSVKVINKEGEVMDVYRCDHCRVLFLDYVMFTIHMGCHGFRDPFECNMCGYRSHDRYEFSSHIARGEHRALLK
T3 sequence (Q96SW2 whole entry): as the sequence (Q96SW2 whole entry) above
T3 sequence (Q16531 whole entry partner): as the sequence (Q16531 whole entry partner) above
T6 sequence (Q9UKS7 whole entry): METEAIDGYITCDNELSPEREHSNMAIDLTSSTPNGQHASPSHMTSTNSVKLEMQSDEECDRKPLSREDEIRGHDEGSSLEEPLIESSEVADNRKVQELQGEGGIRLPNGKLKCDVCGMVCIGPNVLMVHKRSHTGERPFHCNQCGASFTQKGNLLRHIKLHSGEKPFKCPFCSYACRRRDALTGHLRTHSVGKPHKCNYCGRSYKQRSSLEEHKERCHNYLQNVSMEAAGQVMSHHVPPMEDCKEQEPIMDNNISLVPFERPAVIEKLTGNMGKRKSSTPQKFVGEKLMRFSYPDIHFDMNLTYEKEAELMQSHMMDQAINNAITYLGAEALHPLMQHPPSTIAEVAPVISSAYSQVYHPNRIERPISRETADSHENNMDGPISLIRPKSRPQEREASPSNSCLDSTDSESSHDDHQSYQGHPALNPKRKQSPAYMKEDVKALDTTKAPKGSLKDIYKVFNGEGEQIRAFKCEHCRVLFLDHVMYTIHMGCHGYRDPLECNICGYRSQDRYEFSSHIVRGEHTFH
T6 sequence (Q96SW2 whole entry): as the sequence (Q96SW2 whole entry) above
T6 sequence (Q16531 whole entry partner): as the sequence (Q16531 whole entry partner) above

| SMILES | CK1α substrate protein remaining % (CK1α) | IKZF1 substrate protein remaining % (IKZF1) | IKZF3 substrate protein remaining % (IKZF3) | GSPT1 substrate protein remaining % (GSPT1) | IC50 (MM.1S cells) [nM] | WEE1 substrate protein remaining % (WEE1) | IKZF2 substrate protein remaining % (IKZF2) |
| --- | --- | --- | --- | --- | --- | --- | --- |
| O=C1CCN(N2Cc3cc(CN4C[C@@H]5C[C@H]4CN5c4cccc(Cl)c4Cl)ccc3C2=O)C(=O)N1 [GT-05163, 1-(5-(((1S,4S)-5-(2,3-dichlorophenyl)-2,5-diazabicyclo[2.2.1]heptan-2-yl)methyl)-1-oxoisoindolin-2-yl)dihydropyrimidine-2,4(1H,3H)-dione] | B (80%< substrate protein remaining % ≤100%) | A (0% ≤ substrate protein remaining % ≤80%) | A (0% ≤ substrate protein remaining % ≤80%) | A (0% ≤ substrate protein remaining % ≤80%) | 500 to 1000 | B (80%< substrate protein remaining % ≤100%) | A (0% ≤ substrate protein remaining % ≤80%) |
| O=C1CCN(N2Cc3cc(CN4CC=C(c5ccnc6cc(F)ccc56)CC4)ccc3C2=O)C(=O)N1 [GT-05166, 1-(5-((4-(7-fluoroquinolin-4-yl)-3,6-dihydropyridin-1(2H)-yl)methyl)-1-oxoisoindolin-2-yl)dihydropyrimidine-2,4(1H,3H)-dione] | B (80%< substrate protein remaining % ≤100%) | A (0% ≤ substrate protein remaining % ≤80%) | A (0% ≤ substrate protein remaining % ≤80%) | A (0% ≤ substrate protein remaining % ≤80%) | 100 to 300 | A (0% ≤ substrate protein remaining % ≤80%) | A (0% ≤ substrate protein remaining % ≤80%) |
| Cc1ccc(Sc2ccccc2N2CCN(Cc3ccc4c(c3)CN(N3CCC(=O)NC3=O)C4=O)CC2)c(C)c1 [GT-04867, 1-(5-((4-(2-((2,4-dimethylphenyl)thio)phenyl)piperazin-1-yl)methyl)-1-oxoisoindolin-2-yl)dihydropyrimidine-2,4(1H,3H)-dione] | B (80%< substrate protein remaining % ≤100%) | A (0% ≤ substrate protein remaining % ≤80%) | B (80%< substrate protein remaining % ≤100%) | A (0% ≤ substrate protein remaining % ≤80%) | 500 to 1000 | B (80%< substrate protein remaining % ≤100%) | B (80%< substrate protein remaining % ≤100%) |
| CC1(C)CCC(CN2CCN(Cc3ccc4c(c3)CN(N3CCC(=O)NC3=O)C4=O)CC2)=C(c2ccc(Cl)cc2)C1 [GT-04944, 1-(5-((4-((4′-chloro-5,5-dimethyl-3,4,5,6-tetrahydro-[1,1′-biphenyl]-2-yl)methyl)piperazin-1-yl)methyl)-1-oxoisoindolin-2-yl)dihydropyrimidine-2,4(1H,3H)-dione] | B (80%< substrate protein remaining % ≤100%) | B (80%< substrate protein remaining % ≤100%) | B (80%< substrate protein remaining % ≤100%) | A (0% ≤ substrate protein remaining % ≤80%) | 500 to 1000 | B (80%< substrate protein remaining % ≤100%) | B (80%< substrate protein remaining % ≤100%) |
| CC1(C)CCC(CN2CC3CC(C2)N3Cc2ccc3c(c2)CN(N2CCC(=O)NC2=O)C3=O)=C(c2ccc(Cl)cc2)C1 [GT-06456, 1-(5-((3-((4′-chloro-5,5-dimethyl-3,4,5,6-tetrahydro-[1,1′-biphenyl]-2-yl)methyl)-3,6-diazabicyclo[3.1.1]heptan-6-yl)methyl)-1-oxoisoindolin-2-yl)dihydropyrimidine-2,4(1H,3H)-dione] | A (0% ≤ substrate protein remaining % ≤80%) | A (0% ≤ substrate protein remaining % ≤80%) | A (0% ≤ substrate protein remaining % ≤80%) | A (0% ≤ substrate protein remaining % ≤80%) | 100 to 300 | A (0% ≤ substrate protein remaining % ≤80%) | A (0% ≤ substrate protein remaining % ≤80%) |
| O=C1CCN(N2Cc3cc(CN4CCC(c5ccsc5)CC4)ccc3C2=O)C(=O)N1 [GT-07371, 1-(1-oxo-5-((4-(thiophen-3-yl)piperidin-1-yl)methyl)isoindolin-2-yl)dihydropyrimidine-2,4(1H,3H)-dione] | B (80%< substrate protein remaining % ≤100%) | B (80%< substrate protein remaining % ≤100%) | A (0% ≤ substrate protein remaining % ≤80%) | A (0% ≤ substrate protein remaining % ≤80%) | 500 to 1000 | B (80%< substrate protein remaining % ≤100%) | B (80%< substrate protein remaining % ≤100%) |
| O=C1CCN(N2Cc3cc(CN4CCC(c5c[nH]c6cc(F)ccc56)CC4)ccc3C2=O)C(=O)N1 [GT-05164, 1-(5-((4-(6-fluoro-1H-indol-3-yl)piperidin-1-yl)methyl)-1-oxoisoindolin-2-yl)dihydropyrimidine-2,4(1H,3H)-dione] | B (80%< substrate protein remaining % ≤100%) | A (0% ≤ substrate protein remaining % ≤80%) | B (80%< substrate protein remaining % ≤100%) | A (0% ≤ substrate protein remaining % ≤80%) | 100 to 300 | B (80%< substrate protein remaining % ≤100%) | A (0% ≤ substrate protein remaining % ≤80%) |
| O=C1CCN(N2Cc3cc(CN4CC(=C5CCOc6cc(F)ccc65)C4)ccc3C2=O)C(=O)N1 [GT-05168, 1-(5-((3-(7-fluorochroman-4-ylidene)azetidin-1-yl)methyl)-1-oxoisoindolin-2-yl)dihydropyrimidine-2,4(1H,3H)-dione] | B (80%< substrate protein remaining % ≤100%) | B (80%< substrate protein remaining % ≤100%) | A (0% ≤ substrate protein remaining % ≤80%) | A (0% ≤ substrate protein remaining % ≤80%) | 100 to 300 | B (80%< substrate protein remaining % ≤100%) | B (80%< substrate protein remaining % ≤100%) |
| Cn1cc(C2=CCN(Cc3ccc4c(c3)CN(N3CCC(=O)NC3=O)C4=O)CC2)c2ccc(F)cc21 [GT-05167, 1-(5-((4-(6-fluoro-1-methyl-1H-indol-3-yl)-3,6-dihydropyridin-1 (2H)-yl)methyl)-1-oxoisoindolin-2-yl)dihydropyrimidine-2,4(1H,3H)-dione] | B (80%< substrate protein remaining % ≤100%) | A (0% ≤ substrate protein remaining % ≤80%) | A (0% ≤ substrate protein remaining % ≤80%) | A (0% ≤ substrate protein remaining % ≤80%) | 10 to 50 | A (0% ≤ substrate protein remaining % ≤80%) | A (0% ≤ substrate protein remaining % ≤80%) |
